Where “and” joins values, the source holds several entries; their conditions need not be identical. Equal values may be shown once.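 Following 48 hours of exposure in 96-well plates, responses at five concentrations were used to interpolate endpoints linearly. GI50 marks 50% less growth. The concentration for full growth arrest is given as TGI.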
How the values were obtained:
Experiment in all cases: NCI anticancer screen, dose series, 48 h
[1] = test system: ACHN renal
[2] = test system: HT29 colon
[3] = test system: SK-OV-3 ovarian
[4] = test system: HCT-116 colon
[5] = test system: 786-0 renal
[6] = test system: TK-10 renal
[7] = test system: EKVX NSCLC
[8] = test system: OVCAR-5 ovarian
[9] = test system: HCT-15 colon
[10] = test system: NCI-H522 lung

Compound	GI50 [1]	TGI [1]	GI50 [2]	TGI [2] [µM]	GI50 [3]	TGI [3] [µM]	GI50 [4]	TGI [4] [µM]	GI50 [5]	TGI [5] [µM]	GI50 [6]	TGI [6]	GI50 [7]	TGI [7]	GI50 [8]	TGI [8]	GI50 [9]	TGI [9] [µM]	GI50 [10]	TGI [10]
CCCCC(=O)[O-].N.N.N.N.N.[Co+3].[O-][Cl+3]([O-])([O-])[O-]	> 100 µM	> 100 µM	> 100 µM	> 100	> 100 µM	> 100	> 100 µM	> 100	> 100 µM	> 100	> 100 µM	> 100 µM	> 100 µM	> 100 µM	> 100 µM	> 100 µM	> 100 µM	> 100	> 100 µM	> 100 µM
Cc1c(Cl)cccc1NC(=O)c1sc2nc3c(cc2c1N)CCCCCC3	0.465 µM	> 50 µM	0.188 µM	6.56	0.279 µM	26.5	0.195 µM	> 50	0.223 µM	14.7	10.7 µM	47.4 µM	0.234 µM	> 50 µM	0.791 µM	> 50 µM	0.156 µM	> 50	0.116 µM	1.07 µM
COc1ccc(C(=O)c2cc(OC)c(OC)c(OC)c2)cc1O	0.0433 µM	> 100 µM	1.96 µM	> 49.5	0.395 µM	> 100	0.0376 µM	> 100	0.914 µM	> 100	> 61.5 µM	> 100 µM	0.791 µM	> 100 µM	1.6 µM	> 100 µM	< 0.01 µM	> 100	< 0.0164 µM	
CN(C)CCNC(=O)c1cc([N+](=O)[O-])ccn1		> 100 µM		48.1		> 100		61.4		> 100		> 100 µM		> 100 µM		> 100 µM		41		37.2 µM
C=C1C(=O)O[C@@H]2C[C@@H](C)[C@@H]3[C@@H](OC4OC(COC(C)=O)C(O)C(O)C4O)CC(=O)[C@@]3(C)C[C@H]12 (stereo not given in full)		0.987 µM		2.93		37.4		1.88		0.883		3.36 µM		7.6 µM		8.07 µM		0.582		0.301 µM
COc1cccc(/C=C/C(=O)c2cc3c(N)c(C(=O)Nc4cccc(Cl)c4C)sc3nc2C)c1	0.811 µM	1.95 µM	0.418 µM	2.41	2.2 µM	> 50	0.605 µM	1.42	0.823 µM	1.83	1.53 µM	8.19 µM	2.61 µM	> 31.8 µM	1.22 µM	3.44 µM	0.51 µM	1.46	0.424 µM	2.86 µM
O=[N+]([O-])c1cc(Br)cc2c1[nH]c1ccc(Br)cc12	3.31 µM	19.9 µM	4.03 µM	> 100	3.59 µM	15.4	5 µM	21.5	5.47 µM	27.4	2.46 µM	8.48 µM	3.19 µM	> 100 µM	15.5 µM	> 100 µM	28 µM	> 100	3.09 µM	40.3 µM
CC(=O)OC[C@@H]1[C@H]2CC(=O)O[C@H]2C[C@H]1OC(C)=O		> 100 µM		> 100		> 100		> 100		> 100		> 100 µM		> 100 µM		> 100 µM		> 100		> 100 µM
O=C(Nc1nccs1)c1cc(C2=CC=CC([N+](=O)[O-])C=C2)nc(=S)[nH]1 (stereo not given)		> 100 µM		> 100		> 100		> 100		> 100		> 100 µM		> 100 µM		> 100 µM		> 100		> 100 µM
O=c1[nH]nc2c3c(cccc13)NC(CN1Cc3ccccc3C1)=N2	4.92 µM	> 100 µM	3.45 µM	> 100	3.11 µM	> 100	6.77 µM	> 100	6.62 µM	> 100	8.89 µM	> 100 µM	3.92 µM	> 100 µM	5.73 µM	> 100 µM	6.13 µM	> 100	2.77 µM	> 100 µM
Cc1c(C(=O)CC(=O)C(=O)Nc2cccc(C(F)(F)F)c2)[n+](=O)c2ccccc2n1[O-]		15.9 µM		17.8		50.2		10.2		21.5		79.7 µM		20.3 µM		19.5 µM		10.3		5.5 µM
O=C(N/N=C/c1ccc(O)cc1O)c1ccc(Nc2ccnc(C(F)(F)F)c2)cc1	31.8 µM	> 100 µM	> 100 µM	> 100	9.67 µM	> 80.1	39.1 µM	> 100	31.2 µM	> 100	2.06 µM	> 47.1 µM	8.91 µM	> 75.1 µM	> 100 µM	> 100 µM	> 100 µM	> 100	13.5 µM	> 70 µM
Cc1c(CN2CCC(Nc3ncnc4sc(CC(F)(F)F)cc34)CC2)ccc2c1cc(C#N)n2Cc1cn[nH]c1	4.47 µM and 10.7 µM	19.5 µM and > 38 µM	1.75 µM and 2.45 µM	5.95	10 µM and > 24.1 µM	> 47.4	1.12 µM and 1.99 µM	2.4	4.92 µM and 4.44 µM	21.9	11.6 µM and > 35.2 µM	26.2 µM and > 52.3 µM	1.92 µM and 3.08 µM	21.2 µM and > 43.4 µM	13.2 µM and > 33.4 µM	34.9 µM and > 51 µM	2.62 µM and 3.24 µM	10.3	3.77 µM and 5.24 µM	23.2 µM and > 27.5 µM
NC1CCC[C@@H](O)[C@H]1O (stereo not given in full)		> 100 µM		> 100		> 100		> 100		> 100	> 100 µM	> 100 µM		> 100 µM		> 100 µM		> 100		> 100 µM
CN(C)CCCn1c2c3ccccc3ccc2c2oc(=O)c3ccccc3c21		15.7 µM		14.7		> 61.8		5.05		5.54		23 µM		60.7 µM		55.5 µM		4.34		10.6 µM
CCc1ccc(CCC(=O)Nc2ncc(Cc3ccccc3)s2)o1	5.68 µM	> 100 µM	1.02 µM	> 100	2.81 µM	> 100	1.05 µM	> 100	6.95 µM	> 100	23 µM	> 100 µM	4.6 µM	> 100 µM	3.93 µM	> 100 µM	0.544 µM	> 100	1.99 µM	> 100 µM

From PubChem BioAssay (NCI)
